Experimental data reported in patent US4629738A, “Non-classical topical treatment for glaucoma” (University of Iowa Research Foundation, priority 1984, dated 1986).
“And” between values parts separate entries of the source, which are not always exact repeats. Equal entries are not always repeated. “Also recorded” adds a separate entry of the source.

Experiments:
[1] = test system: intraocular pressure (IOP) of adult white rabbits; assay: Salted Rabbit Test: IOP after topical 1% w/v suspension; format: in vivo; details: for IOP change, individual rabbit (Rabbit No. 1-6): 1% w/v suspension, 3 drops
Method: In particular, an initial drop from the test formulation followed by two drops at one minute intervals are applied to one eye of each of six adult white rabbits that had been maintained ona diet containing 0.5% sodium. The treated eye was selected randomly, whereas, the fellow eye received placebo; the observer was masked. Results identified a small but significant reduction of intraocular pressure in the treated eye at 30, 60 and 120 minutes.
One drop, followed by two drops each at one minute intervals, was applied to one eye of normal adult white rabbits. Six rabbits were used in the experiment. The treated eye was selected randomly, whereas, the fellow eye received placebo. The observer was masked. The intraocular pressure (IOP) was measured with a Digilab Pneumotonometer, initially and every ten minutes for 120 minutes following instillation of the anti-glaucoma agent. A drop of local anesthetic was applied just prior to making the measurement.

carbonic anhydrase = assay: in vitro carbonic anhydrase activity, simplified method of Maren; format: biochemical; set-up: averaged I50 (concentration of drug causing 50% inhibition of enzyme): unit not given here
Method: Water was added to the reaction vessel which was kept in a water bath at 0±0.25° C. The reaction cell was constantly purged with CO2 at a rate of 200 to 250 ml/min. Each reagent was added at a specified time and in a specified order. […] The time required for the reaction begins with the addition of carbonate buffer and was completed with the indicator changed from red to yellow. […] Reaction time was the time for the uncatalyzed reaction time. […] By varying the time before adding the carbonate buffer and then determining the reaction time, the equilibration time can be accurately determined. The reaction time was averaged over three determinations. […] (If two enzyme units are added, then the concentration of drug yielding a reaction time corresponding to the activity of one unit is taken as the I50). An enzyme unit (e.u.) was calculated from: [formula]

in vitro carbonic anhydrase inhibition, in words (carbonic anhydrase): inactive in vitro
activity relative to acetazolamide (ratio of I50) (carbonic anhydrase; 0.52/0.00914): 1/60
averaged I50 (concentration of drug causing 50% inhibition of enzyme) (carbonic anhydrase; heparinized blood, 2 enzyme units, 0 C): 0.520
SMILES: CNS(=O)(=O)c1nnc(NC(C)=O)s1 [methyl acetazolamide, N-methyl-2-acetylamino-1,3,4-thiadiazole-5-sulfonamide]
IOP change, individual rabbit (Rabbit No. 1-6) ([1]; 10 min): -4 mm Hg and -2 mm Hg and 0 mm Hg
IOP change, individual rabbit (Rabbit No. 1-6) ([1]; 20 min): -2 mm Hg and 0 mm Hg and -4 mm Hg and -3 mm Hg and 1 mm Hg
IOP change, individual rabbit (Rabbit No. 1-6) ([1]; 30 min): -3 mm Hg and -2 mm Hg and -1 mm Hg
IOP change, individual rabbit (Rabbit No. 1-6) ([1]; 40 min): 0 mm Hg and -1 mm Hg
IOP change, individual rabbit (Rabbit No. 1-6) ([1]; 50 min): -5 mm Hg and -2 mm Hg and -1 mm Hg and 0 mm Hg
IOP change, individual rabbit (Rabbit No. 1-6) ([1]; 60 min): -3 mm Hg and 1 mm Hg and -2 mm Hg and -1 mm Hg
IOP change, individual rabbit (Rabbit No. 1-6) ([1]; 70 min): -4 mm Hg and -2 mm Hg and 0 mm Hg and 2 mm Hg
IOP change, individual rabbit (Rabbit No. 1-6) ([1]; 80 min): -3 mm Hg and -4 mm Hg and 1 mm Hg and 0 mm Hg
IOP change, individual rabbit (Rabbit No. 1-6) ([1]; 90 min): -2 mm Hg and 1 mm Hg and -1 mm Hg and -4 mm Hg and 0 mm Hg and 3 mm Hg
IOP change, individual rabbit (Rabbit No. 1-6) ([1]; 100 min): -4 mm Hg and 0 mm Hg and -3 mm Hg and -2 mm Hg
IOP change, individual rabbit (Rabbit No. 1-6) ([1]; 110 min): -2 mm Hg and 0 mm Hg and 1 mm Hg
IOP change, individual rabbit (Rabbit No. 1-6) ([1]; 120 min): -3 mm Hg and 0 mm Hg and -1 mm Hg
reduction of intraocular pressure after topical administration, in words ([1]; rabbit, eye drops): lowering of IOP was statistically significant at all time intervals; also recorded: able to reduce intraocular pressure
